Results taken from publication PMC6941952, “A homogeneous bioluminescent immunoassay to probe cellular signaling pathway regulation” (Communications Biology, 2020).
Several values for one entry are separate records, joined by “and”; a condition that tells them apart may be missing. Equal entries are not always repeated. Where a SMILES comes first, the peptide text is derived from it. The star is where a group is joined. Cbz = O=C(OCc1ccccc1)*

Assays:
phospho-IκBα (Ser32) = experiment: NanoBiT cell-based immunoassay, phosphorylated IκBα in MCF-7 cells; set-up: species or system human; settings: for P-IkB Average: background subtracted
Method: (§1) Prior to NanoBiT Cell-Based Immunoassay, 50,000 cells were seeded in 160 µl of complete growth media per well of a 96-well plate and incubated overnight. The cells were checked under microscope and it was determined that 50,000 cells per well in 96-well plate is under 90% confluency for all cells tested. If necessary, the cell culture media were replaced with serum-free media after the cells were stably adherent on the plate and incubated overnight. To treat cells with activators or inhibitors, medium was changed to 30 µl of medium containing inhibitors. If activation of a specific pathway is needed, the cells were stimulated with 10 µl of medium containing activators. To lyse the cells, 10 µl of lysis buffer containing 0.1% digitonin diluted in 1X immunoassay buffer with protease and phosphatase inhibitors was added and the plates were mixed vigorously for 20 min. Then, 50 µl of an antibody mix containing two primary antibodies against the target protein and NanoBiT detecting antibodies (0.3 µl each per well), diluted in 1X immunoassay buffer was added to the lysates. The plates were incubated at 23 °C for 90 min, followed by the addition of 25 µl of Nano-Glo® reagent consisting of Nano-Glo® Luciferase Assay Substrate mixed with 1X immunoassay buffer. Luminescence was measured using a plate-reading luminometer.
In all, 50,000 MCF-7 cells were seeded in 160 µl complete growth medium per well of a 96-well plate and incubated overnight. Half of the cells were treated with 50 ng per ml TNFα and half with vehicle. Cells were lysed as described above and a mixture of NanoBiT secondary antibodies with primary antibodies at the matrix concentrations described in Fig. 2a were added. After 90 min incubation, the Nano-Glo® reagent was added to the reactions as described above and luminescence was measured using a plate-reading luminometer.
(§2) Single dose or dose response inhibitor treatments were performed prior to activation of the pathways as follows. For IκBα, the cells were treated in 30 µl medium with IKK16 or MG132 for 60 min before the addition of 10 µl of DMEM containing appropriate concentration of TNFα. To measure phosphorylation of AKT or STAT3, the corresponding NanoBiT immunoassays were developed with MCF-7 or A431 cells, respectively, according the same scheme used to develop the IκBα assay using the primary antibodies for AKT and STAT3 described in the reagents section. For the AKT assay, MCF-7 cells were incubated overnight in phenol-red free DMEM medium (Gibco #21063-029) without serum. Treatment with LY294002 was performed in 30 µl medium and cells were incubated for 60 min before the addition of 1 µM Insulin. To measure STAT3 phosphorylation, A431 cells were incubated overnight in DMEM medium without serum. […] After addition of the stimulators, the cells were incubated for additional times as follows. IκBα phosphorylation and degradation analyses required both time courses and single time points as described in figures. […] The NanoBiT immunoassay protocol was followed as described above.
(§3) All 96-well assay plates were read using a GloMax® 96 Microplate Luminometer from Promega. The instrument was set to 0.5 s integration time. In order to obtain net change of signal, the reagent background values (signal from the well containing all reagent except primary antibodies) were subtracted from the sample values. To plot and analyze the data, Microsoft Excel and GraphPad Prism® Software were used. IC50 values were determined by using a nonlinear regression fit to a sigmoidal dose response (variable slope).

total IκBα = experiment: NanoBiT cell-based immunoassay, total IκBα in MCF-7 cells; set-up: species or system human; settings: for Total IkB Average: background subtracted
Method: as §1, with “The cells were checked under microscope and it was determined that 50,000 cells per well in 96-well plate is under 90% confluency for all cells tested.” left out
as §2, with “For the AKT assay, MCF-7 cells were incubated overnight in phenol-red free DMEM medium (Gibco #21063-029) without serum.” left out
as §3

## CC(C)C[C@@H](C=O)NC(=O)[C@H](CC(C)C)NC(=O)[C@H](CC(C)C)NC(=O)OCc1ccccc1 [MG132] (Cbz-Leu-Leu-Leu-aldehyde)
phospho-IκBα (Ser32); MG132, TNF 0 min
  P-IkB Raw data: 22120 and 22340 and 21000 and 22420
  P-IkB Subtract reagent background: 5850 and 5550 and 5770 and 4430
  P-IkB Average: 5400
phospho-IκBα (Ser32); MG132, TNF 2 min
  P-IkB Raw data: 23520 and 22950 and 21920 and 24690
  P-IkB Subtract reagent background: 8120 and 6950 and 6380 and 5350
  P-IkB Average: 6700
phospho-IκBα (Ser32); MG132, TNF 4 min
  P-IkB Raw data: 23590 and 23010 and 22240 and 23600
  P-IkB Subtract reagent background: 7030 and 7020 and 6440 and 5670
  P-IkB Average: 6540
phospho-IκBα (Ser32); MG132, TNF 6 min
  P-IkB Raw data: 26150 and 25190 and 24160 and 26140
phospho-IκBα (Ser32); MG132, TNF 8 min
  P-IkB Raw data: 31970 and 30150 and 26560 and 32480
  P-IkB Subtract reagent background: 15910 and 15400 and 13580 and 9990
  P-IkB Average: 13720
phospho-IκBα (Ser32); MG132, TNF 10 min
  P-IkB Raw data: 38930 and 36060 and 31570 and 39590
  P-IkB Subtract reagent background: 23020 and 22360 and 19490 and 15000
  P-IkB Average: 19968
phospho-IκBα (Ser32); MG132, TNF 12 min
  P-IkB Raw data: 47120 and 43420 and 37410 and 48430
  P-IkB Subtract reagent background: 31860 and 30550 and 26850 and 20840
  P-IkB Average: 27525
phospho-IκBα (Ser32); MG132, TNF 15 min
  P-IkB Raw data: 56120 and 51230 and 43530 and 56550
  P-IkB Subtract reagent background: 39980 and 39550 and 34660 and 26960
  P-IkB Average: 35288
phospho-IκBα (Ser32); MG132, TNF 30 min
  P-IkB Raw data: 63690 and 60630 and 51570 and 63760
  P-IkB Subtract reagent background: 47190 and 47120 and 44060 and 35000
  P-IkB Average: 43343
Total IκBα; MCF-7 cells, 20 µM 1 h pretreatment, TNFα 50 ng per ml
  TNFα-induced degradation of IκBα: inhibited
Total IκBα; MG132, TNF 0 min
  Total IkB Raw data: 86990 and 84090 and 85790 and 87340
  Total IkB Subtract reagent background: 70533 and 70183 and 67283 and 68983
  Total IkB Average: 69245
Total IκBα; MG132, TNF 2 min
  Total IkB Raw data: 89610 and 87100 and 86710 and 88460
  Total IkB Subtract reagent background: 71653 and 72803 and 70293 and 69903
  Total IkB Average: 71163
Total IκBα; MG132, TNF 4 min
  Total IkB Raw data: 87350 and 84610 and 87580 and 85650
  Total IkB Subtract reagent background: 68843 and 70543 and 67803 and 70773
  Total IkB Average: 69490
Total IκBα; MG132, TNF 6 min
  Total IkB Raw data: 86900 and 82270 and 84580 and 89030
  Total IkB Subtract reagent background: 72223 and 70093 and 65463 and 67773
  Total IkB Average: 68888
Total IκBα; MG132, TNF 8 min
  Total IkB Raw data: 86550 and 79990 and 82380 and 88200
  Total IkB Subtract reagent background: 71393 and 69743 and 63183 and 65573
  Total IkB Average: 67473
Total IκBα; MG132, TNF 10 min
  Total IkB Raw data: 86190 and 79560 and 78070 and 90680
  Total IkB Subtract reagent background: 73873 and 69383 and 62753 and 61263
  Total IkB Average: 66818
Total IκBα; MG132, TNF 12 min
  Total IkB Raw data: 85440 and 78280 and 77940 and 85890
  Total IkB Subtract reagent background: 69083 and 68633 and 61473 and 61133
  Total IkB Average: 65080
Total IκBα; MG132, TNF 15 min
  Total IkB Raw data: 85380 and 79290 and 77150 and 87460
  Total IkB Subtract reagent background: 70653 and 68573 and 62483 and 60343
  Total IkB Average: 65513
Total IκBα; MG132, TNF 30 min
  Total IkB Raw data: 74090 and 69470 and 69970 and 74150
  Total IkB Subtract reagent background: 57343 and 57283 and 52663 and 53163
  Total IkB Average: 55113
